Laboratory results from US10149833B2, “Small molecule, indirubin-3-oxime, for prevention and treatment of bone disease” (Industry-Academic Cooperation Foundation, Yonsei University, priority 2013, dated 2018).
Entries after “also recorded” stand apart in the source; their conditions may differ.

What was measured:
[1] = test system: β-catenin; test: IHC analysis on ex vivo tibia tissues; assay type: cell-based, mice; conditions: ex vivo tibiae treated with the drug (FIG. 2C)
Method: (§1) The tibiae were separated from 15.5-embryonic-day-old C57BL/6 mice, and were incubated in a 24-well tissue culture dish for 7 days. The medium used was prepared by adding 10% FBS, 1 mM beta-polyglycerol disodium phosphate, 50 ng/ml ascorbic acid, 0.3 mg/ml L-glutamine, 0.2% BSA, 100 U/ml penicillin, and 100 μg/ml streptomycin to a minimal essential medium (α-MEM, Gibco). Then, the tibiae were separated from the mice. After being treated in the medium for 24 hours, the tibia was treated with a drug. The medium and the drug were changed every two days. The tibia length was measured before and after treatment with the drug. The tibial tissue, on which drug treatment was completed, was rinsed with PBS and then fixed using 4% formaldehyde.
(§2) The tibiae that underwent a dewaxing process were dehydrated. After paraffin blocks were formed, the tissues were sectioned at 4-μm thickness. The sectioned tissues were rehydrated, and then stained using immunofluorescence.
(§3) Indirubin-3′-oxime, a GSKβ inhibitor, is already known to increase the stability of β-catenin.

[2] = test system: β-catenin; test: Western blot in RCS cells, β-catenin; assay type: cell-based, Rat; conditions: 24 hours treatment (FIG. 2A)
Method: (§4) Rat chondrosarcoma (RCS) cells were cultured in a Dulbecco's modified Eagle's medium (DMEM; Gibco, Grand Island, N.Y.), supplemented with 10% fetal bovine serum (FBS) and penicillin/streptomycin.
(§5) For Western blot analysis, cells were treated with indirubin-3′-oxime for 24 hours, cultured and reached to 70% confluency and then were harvested. After the harvested samples underwent cytolysis, the proteins were quantified, which was followed by electrophoresis using 10% or 12% SDA-PAGE gel. Afterwards, immunoblot was conducted using antibodies.
as §3

[3] = test system: tibia; test: tibia and growth plate length in mice dosed during a period of active growth; assay type: in vivo, C57BL/6 mice
Method: (§6) Two and six-week-old C57BL/6 mice, purchased from KOATECH (Gyeonggi-do, South Korea), were cared for in accordance with the guidelines established by the Institutional Animal Care and Use Committee at Yonsei University. The mice were divided into a control group and an experimental group, and were adapted to the environment for 1 week. Afterwards, they were treated every day for 2 weeks with a solution containing 20% dimethyl […] and 30% ethanol, or with indirubin-3′-oxime (0.05 mg/kg, 0.1 mg/kg, and 0.5 mg/kg), via intraperitoneal injection. Two weeks later, the tibiae were separated from mice, and then the muscles were separated and removed, after which the bones were fixed using 4% formaldehyde. The bones were treated for 2 weeks with a 10% EDTA solution for the decalcification process. The EDTA solution was changed every two days.
(§7) The tissue-cultured embryo tibiae and the animal-tested tibiae were dewaxed in xylene, and were rehydrated in a stepwise-diluted ethanol solution. The tibial tissue, which was separated from 15.5-embryonic-day-old ICR mice and then tissue-cultured, was stained using the safranin staining procedure. Staining was carried out for 25 min in a 0.02% fast green solution, and after brief dipping in acetic acid, was again carried out for 7 min in a 0.1% safranin solution. Meanwhile, the tibial tissue that was animal-tested and decalcified in EDTA was stained via the hematoxylin-eosin staining procedure. The tissue was stained in a hematoxylin solution for 10 min and then rinsed in running water for 10 min. After being briefly dipped in a solution comprising 0.1% hydrochloric acid and 70% ethanol, the tissue was stained for 30 sec in an eosin solution. The stained tibial tissues again underwent a dehydration process in the stepwise-diluted ethanol solution and were dewaxed in xylene.
as §2
To understand whether indirubin-3′-oxime can actually produce an increase in bone length in mice, indirubin-3′-oxime was administered during a period of active growth, and its effect was examined (FIG. 4A). First of all, the effect on the activity of the growth plate in the middle of a period of growth was examined using the hematoxylin-eosin staining procedure (FIG. 4B).

[4] = test system: β-catenin; test: ICC analysis (immunocytochemistry), β-catenin translocation into the nucleus; assay type: cell-based, Rat; conditions: RCS cells, 24 hours treatment (FIG. 2B)
Method: as §4
2.5×10^4 cells were adhered to a cover glass placed in a 12-well plate. Once securely attached, cells were treated with indirubin-3′-oxime for 24 hours, and then were rinsed with a phosphoric acid buffer solution. After adding 4% paraformaldehyde, cells were fixed at room temperature for 20 min. Then, proteins expressed in the cells were observed through cell membrane permeation, blocking, and immunofluorescent staining processes.
as §3

[5] = test system: ex vivo tibia; test: ex vivo tibia culture, tibia length and safranin staining; assay type: cell-based, C57BL/6 mice; conditions: 1 μM and 5 μM
Method: as §1, with “formaldehyde. The tissue-cultured embryo tibiae and the animal-tested tibiae were dewaxed in xylene, and were rehydrated in a stepwise-diluted ethanol solution. The tibial tissue, which was separated from 15.5-embryonic-day-old ICR mice and then tissue-cultured, was stained using the safranin staining procedure. Staining was carried out for 25 min in a 0.02% fast green solution, and after brief dipping in acetic acid, was again carried out for 7 min in a 0.1% safranin solution. Meanwhile, the tibial tissue that was animal-tested and decalcified in EDTA was stained via the hematoxylin-eosin staining procedure. […]” for “formaldehyde.”

[6] = test system: GSKβ; test: Western blot in RCS cells, inactive GSKβ; assay type: cell-based, Rat; conditions: 24 hours treatment (FIG. 2A)
Method: as §4, §5, §3

[7] = test system: growth plate; test: growth plate activity in 7-week-old mice treated for 2 weeks; assay type: in vivo, C57BL/6 mice; conditions: treated 2 weeks
Method: as §6, §7
The tibiae that underwent a dewaxing process were dehydrated. After paraffin blocks were formed, the tissues were sectioned at 4-μm thickness. The sectioned tissues were rehydrated, and then stained using immunofluorescence. […]

[8] = growth plate at 9 weeks (FIG. 3C)

## O=C1Nc2ccccc2/C1=C1/Nc2ccccc2/C1=N\O [indirubin-3′-oxime]
[1]
  amount of β-catenin in the hypertrophic chondrocyte zone (IHC): amount of β-catenin markedly increased in the hypertrophic chondrocyte zone
[2]
  stability of β-catenin (Western blot): increased the stability of β-catenin
[3]; 13-week-old mice (FIGS. 4D, 4E)
  persistence of the bone length effect after growth has ceased: lasts even in 13-week-old mice; also recorded: found to last even in 13-week-old mice
[3]; mice dosed during period of active growth (FIG. 4B)
  cell proliferation marker PCNA: confirmed through PCNA
[3]; mice dosed during period of active growth (FIG. 4D)
  total bone length of the tibia: increase in the total bone length of the tibia
[3]; mice dosed during period of active growth, hematoxylin-eosin staining (FIGS. 4B, 4C)
  length of each zone and total length of the growth plate: increases not only the length of each zone but also the total length of the growth plate; also recorded: increase not only in the length of each zone but also in the total length of the growth plate
[4]
  amount of β-catenin translocated into the nucleus (ICC): increase in the amount of β-catenin that was translocated into the nucleus
[5]; 6 days, ex vivo tibia (FIGS. 1C, 1D)
  length of resting zone, proliferating zone and hypertrophic chondrocyte zone (safranin staining): increase in the total length (the resting zone, the proliferating zone, and the hypertrophic chondrocyte zone) that depended on the concentration
[5]; tibiae treated for 6 days, ex vivo culture (FIGS. 1A, 1B)
  increase in the total length of the tibia: dose-dependently induces longitudinal bone growth; also recorded: increase in the total length depended on the concentration change
[6]
  amount of inactive GSKβ (Western blot): increasing the amount of inactive GSK3; also recorded: increasing the amount of inactive GSKβ
[7]; [8]
  amount of Ki67, cell proliferation marker (IHC): increase in the amount of Ki67
  stability of β-catenin in growth plate (IHC): increase in the stability of β-catenin
[7]; intraperitoneal, compared with control at 9 weeks (FIG. 3B)
  activity of the growth plate (hematoxylin-eosin staining): inhibits growth plate senescence; also recorded: activity of the growth plate was still maintained
